This passage reports IC50 results from patent publication US8063065B2, “Azaindazole compounds as CCR1 receptor antagonists” (Boehringer Ingelheim International GmbH, priority 2008, dated 2011).

The target of this experiment is T1, CCR1 (Homo sapiens, UniProt P32246).
T1 sequence (P32246 1-355): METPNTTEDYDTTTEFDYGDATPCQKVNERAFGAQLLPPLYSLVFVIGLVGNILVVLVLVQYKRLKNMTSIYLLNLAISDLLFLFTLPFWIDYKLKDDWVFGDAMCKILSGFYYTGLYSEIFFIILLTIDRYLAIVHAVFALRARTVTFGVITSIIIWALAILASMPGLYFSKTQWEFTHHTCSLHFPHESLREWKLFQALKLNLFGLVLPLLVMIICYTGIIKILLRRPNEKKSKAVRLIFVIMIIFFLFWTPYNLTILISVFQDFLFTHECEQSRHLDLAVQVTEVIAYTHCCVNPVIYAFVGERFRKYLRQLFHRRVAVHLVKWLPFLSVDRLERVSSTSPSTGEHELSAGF
Kind of experiment: Method A: calcium flux in CCR1 transfected cells (Fluo-4 NW, FLIPR TETRA), block of the CCR1/MIP-1α interaction. It counts as cell-based. As to conditions: Method A: Fluo-4 NW, MIP-1 alpha at EC80. On the procedure:
Compounds are assessed for the ability to block the interaction of CCR1 and MIP-1α in a functional cellular assay measuring calcium flux in CCR1 transfected cells.
Method A: Non-adherent cells purchased from Chemicon Corporation (HTS005C), stably expressing recombinant CCR1 and G-alpha-16 are grown in RPMI 1640 medium (Mediatech 10-080-CM) supplemented with 10% heat-inactivated FBS, 0.4 mg/mL Geneticin and penicillin/streptomycin. On the day of the assay, the cells are transferred to a beaker and dye-loaded in bulk using a Fluo-4 NW Calcium Assay Kit with probenecid (Invitrogen F36205) at 0.8E6 cells/mL for 1 hour at room temperature. After 1 hour, they are seeded in a 384-well tissue culture-treated plate at a density of 20,000 cells/well. Appropriately diluted test compound is added to the well to achieve a top concentration of 3,000 nM (diluted 4-fold with 10 doses total). The final concentration of DMSO is 1%. The buffer is HBSS (Invitrogen 14025) with 20 mM HEPES at pH 7.4. The cells are allowed to incubate 1 hour in the dark at room temperature. The plates are transferred to the FLIPR TETRA where MIP-1 alpha in 1% BSA is added at the EC80 final concentration. Wells+/−MIP-1 alpha containing diluted DMSO instead of compound serve as the controls. Intracellular calcium flux is recorded on the FLIPR TETRA, using excitation at 470/495 nm and emission at 515/575 nm. Data are analyzed using Activity Base software.
For orientation: Calcium assays in cells follow changes in intracellular calcium, usually with a dye or a luminescent sensor.

Usually IC50 stands for the point on the concentration scale where inhibition reaches its midpoint. For the molecule `COC(=O)CNS(=O)(=O)c1ccc(CNC(=O)c2cncc3c2cnn3-c2ccc(F)cc2)cc1` [[4-({[1-(4-Fluorophenyl)-1H-pyrazolo[3,4-c]pyridine-4-carbonyl]-amino}-methyl)-benzenesulfonylamino]-acetic acid methyl ester], the IC50 was 3 nM.

In the case of `C[C@H](NC(=O)c1cncc2c1cnn2-c1ccc(F)cc1)c1cncc(Br)c1` [1-(4-Fluorophenyl)-1H-pyrazolo[3,4-c]pyridine-4-carboxylic acid [(S)-1-(5-bromopyridin-3-yl)-ethyl]-amide], the IC50 came to 1 nM.

Take `O=C(NCc1ccc(N2CCCCS2(=O)=O)nc1)c1cncc2c1cnn2-c1ccc(F)cc1` [1-(4-Fluorophenyl)-1H-pyrazolo[3,4-c]pyridine-4-carboxylic acid [6-(1,1-dioxo-1λ6-perhydro-1,2-thiazin-2-yl)-pyridin-3-ylmethyl]-amide]: the IC50 was found to be 9 nM.

Consider `COCCN(c1ccc(CNC(=O)c2cncc3c2cnn3-c2ccc(F)cc2)cn1)S(C)(=O)=O` [1-(4-Fluorophenyl)-1H-pyrazolo[3,4-c]pyridine-4-carboxylic acid {6-[methanesulfonyl-(2-methoxy-ethyl)-amino]-pyridin-3-ylmethyl}-amide], for which the IC50 was determined as 1 nM.

For `CN(c1ccc(CNC(=O)c2cncc3c2cnn3-c2ccc(F)cc2)cn1)S(C)(=O)=O` [1-(4-Fluorophenyl)-1H-pyrazolo[3,4-c]pyridine-4-carboxylic acid [6-(methanesulfonyl-methyl-amino)-pyridin-3-ylmethyl]-amide], the IC50 turned out to be 5 nM.

As for `C=CC[C@@H](NC(=O)c1cncc2c1cnn2-c1ccc(F)cc1)c1ccnc(Br)c1` [1-(4-Fluorophenyl)-1H-pyrazolo[3,4-c]pyridine-4-carboxylic acid [(R)-1-(2-bromopyridin-4-yl)-but-3-enyl]-amide], the IC50 came to 17 nM.

For the molecule `CCCC(NC(=O)c1cncc2c1cnn2-c1ccc(Cl)cc1)c1ccc(S(C)(=O)=O)nc1` (stereo not shown) [1-(4-Chlorophenyl)-1H-pyrazolo[3,4-c]pyridine-4-carboxylic acid [1-(6-methanesulfonyl-pyridin-3-yl)-butyl]-amide], the IC50 was 1 nM.

For `CCS(=O)(=O)c1ccc(CNC(=O)c2cncc3c2cnn3-c2ccc(F)cc2)cn1` [1-(4-Fluorophenyl)-1H-pyrazolo[3,4-c]pyridine-4-carboxylic acid (6-ethanesulfonyl-pyridin-3-ylmethyl)-amide], the IC50 amounted to 31 nM.

As to `CCCC(NC(=O)c1cncc2c1cnn2-c1ccc(F)cc1)c1ccc(S(C)(=O)=O)nc1` (stereo not shown) [1-(4-Fluorophenyl)-1H-pyrazolo[3,4-c]pyridine-4-carboxylic acid [1-(6-methanesulfonyl-pyridin-3-yl)-butyl]-amide], the IC50 worked out at 0.8 nM.

As to `CNS(=O)(=O)c1ccc(CNC(=O)c2cncc3c2cnn3-c2ccc(F)cc2)c(Cl)c1` [1-(4-Fluorophenyl)-1H-pyrazolo[3,4-c]pyridine-4-carboxylic acid 2-chloro-4-methylsulfamoyl-benzylamide], the IC50 was 0.2 nM.

For the molecule `O=C(NCc1ccc(CS(=O)(=O)N2CCOCC2)cc1)c1cncc2c1cnn2-c1ccc(F)cc1` [1-(4-Fluorophenyl)-1H-pyrazolo[3,4-c]pyridine-4-carboxylic acid 4-(morpholine-4-sulfonylmethyl)-benzylamide], the IC50 was 20 nM.

`CN(C1CCOCC1)S(=O)(=O)c1ccc(CNC(=O)c2cncc3c2cnn3-c2ccc(F)cc2)cc1` [1-(4-Fluorophenyl)-1H-pyrazolo[3,4-c]pyridine-4-carboxylic acid 4-[methyl-(tetrahydropyran-4-yl)-sulfamoyl]-benzylamide]: the IC50 is 2 nM.

For the molecule `O=C(NCc1ccc(S(=O)(=O)N2CCC(O)C2)cc1)c1cncc2c1cnn2-c1ccc(F)cc1` (stereo not shown) [1-(4-Fluorophenyl)-1H-pyrazolo[3,4-c]pyridine-4-carboxylic acid 4-(3-hydroxy-pyrrolidine-1-sulfonyl)-benzylamide], the IC50 is 0.9 nM.
